Results taken from article PMC7466750, “Crystal structures of human ENPP1 in apo and bound forms” (Acta Crystallographica. Section D, Structural Biology, 2020).

Columns and labels:
hENPP1 [1] = biological target: T1, hENPP1 (Homo sapiens, UniProt P22413); assay: Surface plasmon resonance (SPR) binding to immobilised hENPP1 98–925, 1:1 steady-state affinity model; set-up: hENPP1^98–925 was coupled to the chip surface at 25°C; made in house; host or cells: 293-F cells (human), with 5 µM kifunensine
T1 sequence (P22413 98-925): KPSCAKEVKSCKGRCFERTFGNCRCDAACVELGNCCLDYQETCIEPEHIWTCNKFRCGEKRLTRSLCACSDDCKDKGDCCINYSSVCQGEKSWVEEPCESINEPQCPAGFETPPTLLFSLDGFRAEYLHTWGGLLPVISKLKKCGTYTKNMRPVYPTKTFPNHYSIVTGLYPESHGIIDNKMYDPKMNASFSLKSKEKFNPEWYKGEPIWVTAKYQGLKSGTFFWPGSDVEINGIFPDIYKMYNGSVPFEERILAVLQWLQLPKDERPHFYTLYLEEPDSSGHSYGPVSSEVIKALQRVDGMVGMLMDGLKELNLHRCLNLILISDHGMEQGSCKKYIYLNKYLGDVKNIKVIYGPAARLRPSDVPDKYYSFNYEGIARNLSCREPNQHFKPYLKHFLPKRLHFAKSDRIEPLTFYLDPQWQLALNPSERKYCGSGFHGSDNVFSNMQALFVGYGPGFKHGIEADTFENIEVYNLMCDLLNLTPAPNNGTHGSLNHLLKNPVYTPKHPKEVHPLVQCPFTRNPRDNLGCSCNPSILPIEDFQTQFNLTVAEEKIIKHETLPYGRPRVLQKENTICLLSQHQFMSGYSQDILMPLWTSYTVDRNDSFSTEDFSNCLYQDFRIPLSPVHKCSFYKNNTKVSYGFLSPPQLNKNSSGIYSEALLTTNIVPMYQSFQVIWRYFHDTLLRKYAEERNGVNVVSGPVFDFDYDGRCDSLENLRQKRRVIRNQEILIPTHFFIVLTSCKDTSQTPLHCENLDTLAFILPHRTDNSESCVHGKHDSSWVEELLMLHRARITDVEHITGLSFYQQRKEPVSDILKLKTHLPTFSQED
Procedure: The protein was diluted to 25 µg ml^−1 at pH 6.0 [10 mM 2-(N-morpholino)ethanesulfonic acid (MES), 0.005%(v/v) Tween 20] and injected to an immobilization level of 8–10 kRU. The surface was then blocked with 1 M ethanolamine pH 8.0 for 7 min. SPR experiments were performed at 25°C in SPR running buffer consisting of 50 mM Tris pH 7.4, 150 mM NaCl, 50 µM ZnCl2, 0.005%(v/v) Tween 20, 2%(v/v) DMSO. When performing dose–response testing, analytes were serially diluted (twofold or threefold), injected for 30–90 s contact time and allowed to dissociate back to baseline. The flow rate was 60 µl min^−1. Binding sensorgrams were processed, solvent-corrected and double-referenced using the Scrubber software (BioLogic Software, Australia). Responses at equilibrium for each analyte were fitted to a 1:1 steady-state affinity model that was available within Scrubber.

hENPP1 [2] = biological target: T1, hENPP1; assay: Differential scanning fluorimetry (DSF) thermal shift of hENPP1; assay type: binding; conditions: for ΔT m: DSF
Procedure: DSF experiments were performed using a Bio-Rad CFX96 thermocycler, with the fluorescence intensity measured with excitation and emission at 490 and 570 nm, respectively. Plates were heated from 20 to 100°C at a heating rate of 1.0°C min^−1. Protein was present at a final concentration of 15 µg ml^−1. The well volume was 20 µl. The buffer was 50 mM Tris–HCl pH 7.4, 150 mM NaCl, 50 µM ZnCl2. […] Ligands and controls were present in triplicate.

[3] = Determined by SPR, triplicates ± SD, 25°C, pH 7.4

SMILES: Nc1nc2c(ncn2[C@@H]2O[C@@H]3COP(=O)(O)O[C@H]4[C@@H](O)[C@H](n5cnc6c(N)ncnc65)O[C@@H]4COP(=O)(O)O[C@H]3[C@H]2O)c(=O)[nH]1 [3′3′-cGAMP]
- Kd (hENPP1 [1]; [3]): 1300 ± 300 nM
- Kd (hENPP1 [1]; SPR): 1300 nM
- ΔT m (hENPP1 [2]; tested at 10 µM): +1.2

SMILES: Nc1ncnc2c1ncn2[C@@H]1O[C@H](COP(=O)(O)OP(=O)(O)O)[C@@H](O)[C@H]1O [ADP]
- Kd (hENPP1 [1]; [3]): 56 ± 3 nM
- ΔT m (hENPP1 [2]; compounds at 100 µM): +3.3

SMILES: Nc1ncnc2c1ncn2[C@@H]1O[C@H](COP(=O)(O)O)[C@@H](O)[C@H]1O [AMP]
- Kd (hENPP1 [1]; [3]): 103 ± 8 nM
- ΔT m (hENPP1 [2]; compounds at 100 µM): +2.7

SMILES: Nc1ccn([C@@H]2O[C@H](COP(=O)(O)O)[C@@H](O)[C@H]2O)c(=O)n1 [CMP]
- Kd (hENPP1 [1]; [3]): 1500 ± 300 nM
- Kd (hENPP1 [1]; SPR): > 1000 nM
- ΔT m (hENPP1 [2]; compounds at 100 µM): +2.1

SMILES: COc1ccc2c(Oc3ccc(NS(N)(=O)=O)cc3)ccnc2c1 [Ex54]
- Kd (hENPP1 [1]; [3]): 100 ± 20 nM

SMILES: Nc1nc(=O)c2ncn([C@@H]3O[C@H](COP(=O)(O)O)[C@@H](O)[C@H]3O)c2[nH]1 [GMP]
- Kd (hENPP1 [1]; [3]): 470 ± 60 nM
- Tm (hENPP1 [2]; DSF melting curve, Supplementary Fig. S6): 60.34 (+/-0.03)
- ΔT m (hENPP1 [2]; compounds at 100 µM): +1.0

SMILES: COc1cc2ncnc(N3CCC(CNS(N)(=O)=O)CC3)c2cc1OC [QPS2]
- Kd (hENPP1 [1]; [3]): 55 ± 6 nM
- ΔT m (hENPP1 [2]; compounds at 100 µM): +4.5

SMILES: Cc1cn([C@H]2C[C@H](O)[C@@H](COP(=O)(O)O)O2)c(=O)[nH]c1=O [TMP]
- Kd (hENPP1 [1]; [3]): 1800 ± 300 nM
- Kd (hENPP1 [1]; SPR): > 1000 nM
- ΔT m (hENPP1 [2]; compounds at 100 µM): +1.2

SMILES: O=c1ccn([C@@H]2O[C@H](COP(=O)(O)O)[C@@H](O)[C@H]2O)c(=O)[nH]1 [UMP]
- Kd (hENPP1 [1]; [3]): 1100 ± 300 nM
- Kd (hENPP1 [1]; SPR): > 1000 nM
- ΔT m (hENPP1 [2]; compounds at 100 µM): +1.8
